Like-named read-outs stand apart in the source and are kept apart here.
Experiments:
[1] = system: T1, MDH (malate dehydrogenase, major isozyme, DEAE peak II) of P. verweyi from WLT; test: NADH oxidation, absorbance at […] nm; type: biochemical, Platygyra verweyi; conditions: 100 mM phosphate pH 7.0, about 27 °C, read-out: apparent Km
T1 construct: gene MDH1; native, purified from host tissue extract of symbiotic coral; about 38 kDa by SDS-PAGE, native about 64 kDa, dimer

[2] = system: T2, MDH (malate dehydrogenase, major isozyme, DEAE peak II) of P. verweyi from NPP-OL; test: NADH oxidation, absorbance at […] nm; type: biochemical, Platygyra verweyi; conditions: 100 mM phosphate pH 7.0, about 27 °C, read-out: apparent Km
T2 construct: gene MDH1; native, purified from host tissue extract of symbiotic coral; about 39 kDa by SDS-PAGE, native about 67 kDa, dimer

[3] = NADH varied 38-95 µM, OAA fixed (1 mM [sic])
[4] = OAA varied 14-29 µM, NADH fixed (3 mM as printed)

Km [1, 3] [µM] | Km [2, 3] [µM] | Km [1, 4] [µM] | Km [2, 4] [µM] | SMILES
12.7 | 7.5 | – | – | NC(=O)C1=CN([C@@H]2O[C@H](COP(=O)(O)OP(=O)(O)OC[C@H]3O[C@@H](n4cnc5c(N)ncnc54)[C@H](O)[C@@H]3O)[C@@H](O)[C@H]2O)C=CC1 [NADH]
– | – | 5.7 | 9.4 | O=C(O)CC(=O)C(=O)O [oxaloacetate]
